In ChEMBL document CHEMBL3046226, “Novel glycol benzyl ether herbicides: Herbicidal activity of 3,3a,5,9b-tetrahydro-2H-furo[3,2-c][2]benzopyran derivatives” (2006):
Values after ≈ are worked out from the molar mass of the structure shown.

How the values were obtained:
Assay type in all cases: functional
Oryza sativa [1] = assay: Phytotoxicity in Oryza sativa (rice) assessed as assessed as growth rate at 30 g/acre by Oryza sativa (rice) injury assay
Echinochloa crus-galli [2] = assay: Herbicidal activity against Echinochloa crus-galli (barnyard grass) assessed as growth rate at 30 g/acre
Echinochloa crus-galli [3] = assay: Herbicidal activity against Echinochloa crus-galli (barnyard grass)
Oryza sativa [4] = assay: Phytotoxicity in Oryza sativa (rice) assessed as assessed as growth rate at 10 g/acre by Oryza sativa (rice) injury assay
Echinochloa crus-galli [5] = assay: Herbicidal activity against Echinochloa crus-galli (barnyard grass) assessed as growth rate at 3 g/acre
Echinochloa crus-galli [6] = assay: Herbicidal activity against Echinochloa crus-galli (barnyard grass) assessed as growth rate at 1 g/acre

| Structure (SMILES) | Activity (Oryza sativa [1]) [%] | Activity (Echinochloa crus-galli [2]) [%] | MIC (Echinochloa crus-galli [3]) [µg/mL] | Activity (Oryza sativa [4]) [%] | Activity (Echinochloa crus-galli [5]) [%] | Activity (Echinochloa crus-galli [6]) [%] |
| --- | --- | --- | --- | --- | --- | --- |
| CCc1ccccc1CO[C@@H]1[C@H]2OCc3ccccc3[C@H]2O[C@@H]1CC | 91 | 0 | 0.6 (≈ 1.77 µM) | 91 | 11 | – |
| CC[C@H]1O[C@@H]2[C@@H](OCc3ccccc3F)[C@@H](CC)O[C@@H]2c2ccccc21 | 71 | 0 | 0.8 (≈ 2.24 µM) | – | 91 | 91 |
| Cc1ccccc1CO[C@H]1C[C@]2(C(C)C)CC[C@@]1(C)O2 (relative stereo) [REL-CINMETHYLIN] | 11 | 0 | 0.1 (≈ 0.364 µM) | 41 | 0 | 0 |
| CC[C@H]1O[C@@H]2c3ccccc3C(C)(CBr)O[C@@H]2[C@H]1OCc1ccccc1F (some centres undefined) | 91 | 0 | > 3 | 91 | 71 | – |
| CC[C@H]1O[C@@H]2c3ccccc3CO[C@@H]2[C@H]1OCc1ccc2ccccc2c1 | 91 | 91 | > 10 | 91 | 91 | 91 |
| CC[C@H]1O[C@@H]2c3ccccc3CO[C@@H]2[C@H]1OCC1CCCCC1 | 91 | 11 | 10 (≈ 31.6 µM) | 91 | 91 | – |
| CC[C@H]1O[C@@H]2c3ccccc3CO[C@@H]2[C@H]1OC(C)=O | 91 | 91 | 80 (≈ 305 µM) | 91 | 91 | 91 |
| CC[C@H]1O[C@@H]2c3ccccc3[C@@H](C)O[C@@H]2[C@H]1OCc1ccccc1F | 0 | 0 | 0.7 (≈ 2.04 µM) | 91 | 6 | 11 |
| CC[C@H]1O[C@@H]2C[C@](C)(c3ccccc3)O[C@@H]2[C@H]1OCc1ccccc1F | 6 | 0 | 0.1 (≈ 0.281 µM) | 91 | 6 | – |
| CC[C@H]1O[C@@H]2c3ccccc3CO[C@@H]2[C@H]1OCc1ccc(F)cc1 | 71 | 0 | 1 (≈ 3.05 µM) | 91 | 0 | 11 |
| CC[C@H]1O[C@@H]2c3occc3CO[C@@H]2[C@H]1OCc1ccccc1C | 71 | 6 | 0.2 (≈ 0.636 µM) | 91 | 41 | 91 |
| CC[C@H]1O[C@@H]2c3ccccc3CO[C@@H]2[C@H]1O | 91 | 91 | – | 91 | 91 | 91 |
| CC[C@H]1O[C@@H]2c3ccccc3CO[C@@H]2[C@H]1OCc1ccccc1C(F)(F)F | 91 | 0 | 0.4 (≈ 1.06 µM) | 91 | 71 | 91 |
| CC[C@H]1O[C@@H]2c3ccccc3CO[C@@H]2[C@H]1OC(C)c1ccccc1 (some centres undefined) | 91 | 0 | 3 (≈ 9.25 µM) | 91 | 41 | – |
| CC[C@H]1O[C@@H]2c3ccccc3CO[C@@H]2[C@H]1OC(=O)c1ccccc1 | 91 | 6 | 3.3 (≈ 10.2 µM) | 91 | 91 | – |
| CC[C@H]1O[C@@H]2c3ccccc3CO[C@@H]2[C@H]1OCc1ccccc1C#N | 91 | 0 | 3.2 (≈ 9.54 µM) | 91 | 91 | 91 |
| CC[C@H]1O[C@@H]2c3ccccc3CO[C@@H]2[C@H]1OCc1ccsc1 | 91 | 0 | 0.3 (≈ 0.948 µM) | 91 | 71 | 91 |
